# Measured values reported in patent publication US8816047B2 (Cure DM Group Holdings, LLC, priority 2007, dated 2014).
# Where two headings read alike, the source gives them in different places.
# Key:
# [1] = HIP2B stability study in distilled water by LC/MS; format: physicochemical; conditions: 4-8° C. and 25° C., 1, 2 and 3 weeks
# Procedure: Experimental Procedure. The study was initiated with two groups of eight samples each. One group is maintained at 4-8° C. and the other at 25° C., as part of a 2 month stability study. Each sample contains 4.57 milligrams of HIP2B in 5 micro liters of distilled water. One sample from each temperature group is removed and placed in a minus 20° C. freezer, for storage, every seven days until an LC/MS analysis can be performed. A series of samples were evaluated after 1, 2, and 3 weeks in the stability study against a control sample of HIP2B which had been prepared at the initiation of the study and stored at −20° C. After three weeks of stability testing at each of the temperatures described above, all of the samples were unchanged as determined by LC/MS and therefore deemed stable at 1, 2, and three weeks.
# [2] = Pharmacokinetics and absolute bioavailability in Sprague Dawley rats, IV and SC 4 mg/kg (LC/MS MS); format: in vivo, rat; conditions: for AUC: read-out: AUC(0-∝)
# Procedure: The absolute bioavailability and pharmacodynamic study was conducted in Sprague Dawley rats following intravenous and subcutaneous dose administration of HIP2 (FIG. 24), Optimized HIP2B and INGAP. The purpose was to determine the absorption, absolute bioavailability and plasma levels of HIP2, Optimized HIP2B and INGAP in male rats following two different routes of administration.
# Six Groups of five male Sprague Dawley rats were administered HIP2, HIP2B or INGAP by intravenous and subcutaneous routes as follows in table below.
# Ten serial blood plasma samples (0.03 ml each) were collected from a jugular vein catheter from five animals per group at 5, 10, 15, 30 minutes, 45 minutes followed by samples at 1, 2, 3, 8, and 24 hours post-dose. Plasma was collected into tubes containing EDTA. Following collection, samples were kept chilled on cool packs before centrifugation and transfer to pre-labeled microfuge tubes for storage at −70° C. or below.
# Rat plasma samples of 200 μl each were added to a micro centrifuge tube containing 1 ml of acetonitrile (0.07% trifluoroacetic acid, TFA) and stirred with a vortex mixer for 1 min. followed by centrifugation to remove precipitated plasma proteins. The supernatant solution was removed and evaporated, using a Speed Vac, to dryness. To the micro centrifuge tube containing the dry pellet was added 200 μl of 20:80 acetonitrile:water (containing 0.07% TFA). The sample was centrifuged to remove any insoluble material and the supernatant solution transferred to analytical vials for LC/MS MS analysis. The mass spectrometer was calibrated to detect the most abundant daughter ion/ions observed for each of the respective reference samples of HIP2B (M=286.0), HIP2 (M=287.1) and INGAP (M=212.2, 356.1, 373.9). Optimized HIP2B, HIP2 and INGAP plasma samples were analyzed on a C-18 reverse phase column (50 mm×2.0 mm, Varian Pursuit XRS3) using 0.07% TFA in H2O as buffer A and 0.07% TFA in acetonitrile as buffer B. A linear gradient of 98% A/2% B progressing to 100% B over 9 minutes was used at a flow rate of 0.4 ml/min.
# The following plasma controls were treated as described above and used to establish a standard concentration curve: • 1. Blank plasma as a background control • 2. Five standard plasma samples containing 6.7×10^4, 6.7×10^3, 6.7×10^2, […] ng/ml of HIP2B, HIP2 and INGAP
# [3] = In vitro stability of peptides to proteases in human plasma at 37 C (HPLC/LC-MS); format: in vitro ADME
# Procedure: The peptides were incubated in human plasma, at 37° C. Sample incubations were performed over a period of 1 hr. Individual time points of 1, 5, 10, 30, and 60 minutes were used to follow the reactions. Deactivation of plasma proteases at each time point was achieved by heating the samples at 100° C. for 1 min. Following work-up the plasma treated samples were evaluated by reverse phase chromatography in series with at mass spectrometer, HPLC/LC-MS, against control samples.
# Plasma Treated with HIP and Optimized HIP peptides were evaluated over 1, 5, 10, 30 and 60 minutes. For each time point 0.70 ml of plasma was pipetted into a 10 ml test tube. To each was added 0.30 ml of a stock solution of HIP or Optimized HIP peptide (1.66 mg/ml) prepared in phosphate buffered saline. The plasma/peptide samples were incubated at 37° C. for each time point followed by heating at 100° C. to inactivate the proteolytic activity of plasma proteases. Following inactivation, the samples were diluted with 1 ml of H2O, centrifuged and the supernatant liquid removed for analysis.
# Samples were analyzed on a C-18 reverse phase column (50 mm×2.0 mm) using 0.07% TFA in H2O as buffer A and 0.07% TFA in acetonitrile as buffer B. A linear gradient of 98% A/2% B progressing to 30% A/70% B over 10 min. was used at a flow rate of 0.4 ml/min. Eluant was monitored by UV at a wavelength of 220 nm and by mass spectroscopy. Comparisons of chromatographic profiles of plasma treated peptides (37° C.) against peptide reference samples and plasma controls were used to determine the relative stability of peptide to plasma treatment.
# T=0: Plasma (0.7 ml) plus peptide stock solution (0.3 ml), heat 100° C. 1 min. add 1 ml H2O, centrifuge.
# Plasma background control: 0.7 ml plasma plus PBS (0.3 ml), heat 100° C. 1 min, add 1 ml H2O, centrifuge.
# Peptide reference heat treated: Peptide stock solution (0.3 ml) plus 0.7 ml PBS, heat 100° C. 1 min., add 1 ml H2O.
# Peptide reference no heat: Peptide stock solution (0.3 ml) add 0.7 ml PBS plus 1 ml H2O.
substance,measurement,setting,value
"Ac-IGLHDPTQGTEPNG-NH2 [HIP2B, Ac-Ile-Gly-Leu-His-Asp-Pro-Thr-Gln-Gly-Thr-Glu-Pro-Asn-Gly-NH2]",stability by LC/MS,[1],unchanged
same,AUC(0-∝),"[2]; IV, rat",1614.3 ng·h/mL
same,C1 h,"[2]; IV, rat",114 ng/mL
same,F,"[2]; SQ versus IV, rat",0.87
same,appearance of animals post-dosing,"[2]; all times post-dosing, each route",appeared normal
same,Cmax,"[2]; in vivo, IV, rat",8240 ng/mL
same,Tmax,"[2]; in vivo, IV, rat",4.98 min
same,C0,"[2]; in vivo, IV, rat, estimated",18800 ng/mL
same,clearance,"[2]; in vivo, IV, rat, read-out: apparent mean plasma clearance (converted)",31.7 mL/min/kg
same,Vd,"[2]; in vivo, IV, rat, read-out: apparent mean volume of distribution",0.48 L/kg
same,Tmax,"[2]; in vivo, SQ, rat",10 min
same,Cmax,"[2]; in vivo, SQ, rat, n = 5",2740 ng/mL
same,bioavailability,"[2]; in vivo, sc, rat, read-out: absolute subcutaneous bioavailability",87%
same,CL/F,"[2]; in vivo, sc, subcutaneous, rat, read-out: apparent mean Cl/F (converted)",35 mL/min/kg
same,plasma levels,"[2]; intravenous or subcutaneous, rat",significantly higher relative to HIP2 or INGAP
same,time by which concentrations were undetectable,"[2]; intravenous, rat",≤ 45 min
same,level at 1 h,"[2]; male, Sprague Dawley, plasma, sc, SQ, rat, read-out: C1 h",612 ng/mL
same,Vd/F,"[2]; male, Sprague Dawley, plasma, sc, subcutaneous, rat, read-out: apparent mean V2/F",1 L/kg
same,AUC,"[2]; rat, in vivo, SQ, rat",1930 ng·h/mL
same,half-life,"[2]; rat, in vivo, SQ, rat, read-out: T1/2 (converted)",20.4 min
same,AUC,"[2]; rat, in vivo, iv, rat",2230 ng·h/mL
same,half-life,"[2]; rat, in vivo, iv, rat, read-out: T1/2 (converted)",11.4 min
same,half-life,"[2]; rat, in vivo, iv, rat, read-out: terminal phase plasma half-life",11 min
same,half-life,"[2]; rat, in vivo, sc, subcutaneous, rat, read-out: terminal phase plasma half-life",20 min
same,stability to plasma proteases,"[3]; human plasma 37° C., 1 hr",completely stable
same,stability in vitro in serum,"[3]; serum at 37 degrees, relative to HIP 2",significantly more a more stable
